Measurements from patent US20160120979A1, “METHOD OF APPLYING A COMPOSITION AND PHARMACEUTICAL COMPOSITION WITH A REGIMEN OF ADMINISTERING IT” (priority 2013, published 2016).
Values after ≈ are worked out from the molar mass of the structure shown. Read-outs that look alike come from different tables or passages of the source.

Key:
[1] = test system: MU 50 multi-resistant bacteria; test: Experiment 7: growth of MU50 after pulsed 400 nm photo-activation of antibiotics; format: cell-based, Staphylococcus aureus
Protocol: (§1) In Experiments 7 to 9 the effect of some exemplary photo-activated antibiotics is tested on two different multi resistant bacterial strains:
In Experiment 7 MU 50 multi-resistant bacteria as described above for Experiments 1 to 3 were tested.
(§2) G→Pulse ON 5 ms energy 0.05 J, OFF 45 ms during 10 minutes
(§3) The following experimental procedure are the same for experiments 7, 8 and 9: The bacterial cells were grown in Mueller Hinton Broth in the presence of an antibiotic at a concentration according to the table below until they reached turbidity of 1 according to the McFarland Standard (=3×10^8 bacteria/ml):
(§4) For each antibiotic two patterns of pulsed exposure for photo-activation were applied and a control without exposure to radiation. For example in experiment 7 and 8, pulse ON 10 ms energy 0.1 J, OFF 90 ms during 10 minutes and pulse ON 5 ms energy 0.05 J, OFF 45 ms i.e. in both treatments a 10% ON and a 90% OFF pattern and both for a duration of 10 minutes.
(§5) Incubation for 2 to up 36 hours at 37° C. until time=t2
(§6) At time=t2 one of the antibiotics is added to obtain the same concentration of antibiotic as during the original growth phase prior to time t1=0 as listed in the table above.
(§7) Incubation for further 2 to 4 hours at 37° C. in the presence of antibiotic until time=t3.
(§8) The absorbance value correlates to the colloidal effect and the number of bacteria in the sample.
(§9) These tables below list for each bacterial sample the difference in absorption values representing the difference in the number of bacteria present in each sample by subtracting the absorption values at time t4, which is the last measurement of the growth curve presented in FIGS. 3 to 5 from the last absorption value before the treatment with light at time t3. The values of A and G represent the effect of the treatment of the bacterial samples with two different light patterns for activation of the antibiotic as described above. The values of D correspond to the control samples without photo-activation of the antibiotic: […]

[2] = test system: PA01 Pseudamonas aeruginosa MultiR genetically modified bacteria; test: Experiment 8: growth of PA01 after pulsed 400 nm photo-activation of antibiotics; format: cell-based; conditions: antibiotic concentration per the 12th table
Protocol: as §1
(§10) In Experiment 8 and 9 PA01 Pseudamonas aeruginosa MultiR genetically modified bacteria were tested. This PA01 strain is genetically modified with a quinolone pump and conferring resistance to antibiotics of the quinolone group of antibiotics.
as §2, §3, §4, §5, §6, §7, §8, §9

[3] = test system: PA01 Pseudamonas aeruginosa MultiR genetically modified bacteria; test: Experiment 9: growth of PA01 after pulsed 400 nm photo-activation, shorter pulses; format: cell-based; conditions: antibiotic concentration per the 13th table
Protocol: as §1, §10
A→Pulse ON 3 ms energy 0.03 J, OFF 27 ms during 10 minutes
G→Pulse ON 1 ms energy 0.01 J, OFF 9 ms during 10 minutes
as §3, §4, §5, §6, §7, §8, §9

[4] = test system: MU50 multidrug-resistant Staphylococcus aureus strain (MRSA); test: Minimum inhibitory concentration (MIC) on MU50; format: cell-based
Source text: For some of the experimental tests MU50 bacteria were used. MU50 is a multidrug-resistant Staphylococcus aureus strain (MRSA). MRSA are bacteria which have naturally evolved under antibiotic selection pressure and which are known to be resistant to antibiotics including penicillins (methicillin, dicloxacillin, nafcillin, oxacillin, etc.) and cephalosporins. MU50 is additionally resistant to macrolides, quinolones and aminoglycosides.
The minimum inhibitory concentration (MIC), which inhibits the visible growth of a microorganism after an overnight incubation was determined for the following antibiotics: […]

[5] = test system: Acinetobacter; test: Experiment 12: replication on antibiotic agar after pulsed 400 nm irradiation; format: cell-based; conditions: 24 hours incubation; for C: Acinetobacter (no irradiation), replication: antibiotic 10 mg/l in MH agar; for D Acinetobacter (irradiation), replication: antibiotic 10 mg/l, 400 nm LED pulses 0.02 ms, 1 kHz, 10 minutes
Protocol: (§11) 15′000′000 multi-resistant bacteriae (0.050 ml of a McFarland of 1) were put on 40 mm diameter petri dishes. The petri dishes comprised MH agar with or without antibiotic.
(§12) […]. The LED power during 0.02 ms was measured to be 0.63 W on a Thorlabs power sensor with a surface area of 2.2×2.2 mm representing a power of 13 mW/cm^2.

[6] = test system: Pseudomonas aeruginosa; test: as above; format: cell-based; conditions: 24 hours incubation; for A: Pseudomonas aeruginosa (no irradiation), replication: antibiotic 10 mg/l in MH agar; for B: Pseudomonas aeruginosa (irradiation), replication: antibiotic 10 mg/l, 400 nm LED pulses 0.02 ms, 1 kHz, 10 minutes
Protocol: as §11, §12

[7] = test system: Staphylococcus aureus MU500; test: as above; format: cell-based; conditions: 24 hours incubation; for E: Staphylococcus aureus MU500 (no irradiation), replication: antibiotic 10 mg/l in MH agar; for F: Staphylococcus aureus MU500 (irradiation), replication: antibiotic 10 mg/l, 400 nm LED pulses 0.02 ms, 1 kHz, 10 minutes
Protocol: as §11
(§13) The LED power during 0.02 ms was measured to be 0.63 W on a Thorlabs power sensor with a surface area of 2.2×2.2 mm representing a power of 13 mW/cm^2.

[8] = test system: Acinetobacter; format: cell-based; conditions: for D Acinetobacter (irradiation), replication, second treatment / C: Acinetobacter (no irradiation), replication, second treatment: remaining bacteria of experiment 12 proliferated and treated again
Protocol: as §11, §13
(§14) After the irradiation treatment according to experiment 12, remaining bacteria were allowed to proliferate and then were subject to the treatment according to experiment 12 again in order to test for possible new resistances to the treatment. The values in the following table are designated as in experiment 12: […]

[9] = test system: Staphylococcus aureus MU500; format: cell-based
Protocol: as §11, §13, §14

[10] = A: 400 nm LED pulse ON 10 ms energy 0.1 J, OFF 90 ms during 10 minutes
[11] = G: 400 nm LED pulse ON 5 ms energy 0.05 J, OFF 45 ms during 10 minutes
[12] = A: 400 nm LED pulse ON 10 ms energy 0.1 J, OFF 90 ms during 10 minutes, antibiotic concentration per the 11th table, approx. ten hours after t3
[13] = D: control no pulse, antibiotic concentration per the 11th table
[14] = G: 400 nm LED pulse ON 5 ms energy 0.05 J, OFF 45 ms during 10 minutes, antibiotic concentration per the 11th table
[15] = second treatment according to experiment 12
[16] = remaining bacteria of experiment 12 proliferated and treated again
[17] = Staphylococcus aureus, MRSA, overnight incubation, read-out: MIC

Row | Compound | difference in absorption values (595-600 nm) between t4 and t3 [2, 10] | difference in absorption values (595-600 nm) between t4 and t3 ([2]; D: control no pulse) | difference in absorption values (595-600 nm) between t4 and t3 [2, 11] | MIC ([4]; overnight incubation) | C: Acinetobacter (no irradiation), replication [5] | D Acinetobacter (irradiation), replication [5] | A: Pseudomonas aeruginosa (no irradiation), replication [6] | B: Pseudomonas aeruginosa (irradiation), replication [6] | E: Staphylococcus aureus MU500 (no irradiation), replication [7] | further results
1 | CO[C@H]1/C=C/O[C@@]2(C)Oc3c(C)c(O)c4c(O)c(c(/C=N/N5CCN(C)CC5)c(O)c4c3C2=O)NC(=O)/C(C)=C\C=C\[C@H](C)[C@H](O)[C@@H](C)[C@@H](O)[C@@H](C)[C@H](OC(C)=O)[C@@H]1C [Rifampicin] | 0.0137 | 0.0679 | −0.0678 |  |  |  |  |  |  | difference in absorption values (595-600 nm) between t4 and t3 [1]: −0.0542; difference in absorption values (595-600 nm) between t4 and t3 ([1]; 10 min): −0.0914; difference in absorption values (595-600 nm) between t4 and t3 ([1]; 10 h): −0.1027; difference in absorption values (595-600 nm) between t4 and t3 ([3]; A: 400 nm LED pulse ON 3 ms energy 0.03 J, OFF 27 ms during 10 minutes): −0.0808; difference in absorption values (595-600 nm) between t4 and t3 ([3]; D: control no pulse): 0.0562; difference in absorption values (595-600 nm) between t4 and t3 ([3]; G: 400 nm LED pulse ON 1 ms energy 0.01 J, OFF 9 ms during 10 minutes): −0.0196
2 | Teicopanin |  |  |  | 8 µg/mL |  |  |  |  |  | 
3 | Gentamicin |  |  |  | >16 µg/mL |  |  |  |  |  | 
4 | C[C@H]1c2cccc(O)c2C(=O)C2=C(O)[C@]3(O)C(=O)C(C(N)=O)=C(O)[C@@H](N(C)C)[C@@H]3[C@@H](O)[C@@H]21 [Doxycycline] | −0.0365 | 0.0735 | 0.0181 |  | R (Bacteria can replicate after the treatment) | NR (No replication) | R (Bacteria can replicate after the treatment) | NR (No replication) | R (Bacteria can replicate after the treatment) | difference in absorption values (595-600 nm) between t4 and t3 [1, 12]: −0.083; difference in absorption values (595-600 nm) between t4 and t3 [1, 13]: 0.0072; difference in absorption values (595-600 nm) between t4 and t3 [1, 14]: −0.0429; F: Staphylococcus aureus MU500 (irradiation), replication [7]: NR (No replication); D Acinetobacter (irradiation), replication, second treatment [8]: NR (No replication); C: Acinetobacter (no irradiation), replication, second treatment [8]: R (Bacteria can replicate after the treatment); resistance to the treatment of the second generation resistant bacteria [8, 15]: no resistance to the treatment; F: Staphylococcus aureus MU500 (irradiation), replication, second treatment ([9]; remaining bacteria of experiment 12 proliferated and treated again, irradiation): NR (No replication); E: Staphylococcus aureus MU500 (no irradiation), replication, second treatment [9, 16]: R (Bacteria can replicate after the treatment); resistance to the treatment of the second generation resistant bacteria [9, 15]: no resistance to the treatment
5 | CCn1cc(C(=O)O)c(=O)c2cc(F)c(N3CCNCC3)cc21 [Norfloxacin] | −0.0491 | 0.0039 | −0.1879 |  | R (Bacteria can replicate after the treatment) | NR (No replication) | R (Bacteria can replicate after the treatment) | NR (No replication) | R (Bacteria can replicate after the treatment) | difference in absorption values (595-600 nm) between t4 and t3 [1, 12]: −0.1198; difference in absorption values (595-600 nm) between t4 and t3 [1, 13]: −0.1119; difference in absorption values (595-600 nm) between t4 and t3 [1, 14]: −0.0589; F: Staphylococcus aureus MU500 (irradiation), replication [7]: PR (Bacteria can replicate partially)
6 | Penicillin |  |  |  | >8 µg/mL |  |  |  |  |  | 
7 | Cc1onc(-c2ccccc2)c1C(=O)N[C@@H]1C(=O)N2[C@@H]1SC(C)(C)[C@@H]2C(=O)O [Oxacillin] |  |  |  |  |  |  |  |  |  | MIC [4, 17]: > 32 µg/mL
8 | CN[C@H](CC(C)C)C(=O)N[C@H]1C(=O)N[C@@H](CC(N)=O)C(=O)N[C@H]2C(=O)N[C@H]3C(=O)N[C@H](C(=O)N[C@H](C(=O)O)c4cc(O)cc(O)c4-c4cc3ccc4O)[C@H](O)c3ccc(c(Cl)c3)Oc3cc2cc(c3O[C@@H]2O[C@H](CO)[C@@H](O)[C@H](O)[C@H]2O[C@H]2C[C@](C)(N)[C@H](O)[C@H](C)O2)Oc2ccc(cc2Cl)[C@H]1O [Vancomycin] |  |  |  |  |  |  |  |  |  | MIC ([4]; Staphylococcus aureus, MRSA): 8 µg/mL (≈ 5.52 µM)
9 | O=C(O)c1cn(C2CC2)c2cc(N3CCNCC3)c(F)cc2c1=O [Ciprofloxacin] |  |  |  |  | R (Bacteria can replicate after the treatment) | NR (No replication) | R (Bacteria can replicate after the treatment) | NR (No replication) | R (Bacteria can replicate after the treatment) | MIC [4, 17]: > 16 µg/mL; D Acinetobacter (irradiation), replication, second treatment [8]: NR (No replication); C: Acinetobacter (no irradiation), replication, second treatment [8]: R (Bacteria can replicate after the treatment); E: Staphylococcus aureus MU500 (no irradiation), replication, second treatment [9, 16]: R (Bacteria can replicate after the treatment)
